# Assay: Chemical stability, ciclesonide related impurities by HPLC
# Assay type: physicochemical
# Conditions: 5 days at 50° C.
# Experimental: MDI units from Example 2 were stored for 5 days at 50° C. in both valve-up and valve-down orientations (two units at each orientation). The samples were then tested for ciclesonide related impurities by High Performance Liquid Chromatography and the following results were obtained: […]
smiles,measurement,value
"CC(C)C(=O)OCC(=O)[C@@]12O[C@H](C3CCCCC3)O[C@@H]1C[C@H]1[C@@H]3CCC4=CC(=O)C=C[C@]4(C)[C@H]3[C@@H](O)C[C@@]12C [ciclesonide, 11β, 16α, 17, 21-tetrahydroxypregna 1,4-diene-3,20-dione, cyclic 16,17-acetal with cyclohexanecarboxaldehyde, 21-isobutyrate]",chemical stability in the example formulation,high degree of chemical stability
